From US4206226A (priority 1978, dated 1980)

Columns and labels:
[1] = tested on: adenocarcinoma of the stomach, pancreas, and large bowel; details: combined FU and radiation vs radiation therapy alone, patients; cited from earlier work
L1210 leukemia = assay: Combination chemotherapy of advanced L1210 leukemia, cure rate (greater than 60-day survival); format: in vivo, mice; details: at least 1000 mg/kg
Method: Compound Pt-307 was administered usually in a dosage regimen of 5-60 mg/kg of body weight. This was given as a single dose or on Days 1, 5, and 9 in the standard National Institutes of Health 10-day testing.
CY was utilized at an optimum 50 mg/kg of body weight (range 25-75 mg/kg ) preferably given at Day 3 in the 10-day testing. 5-FU was utilized at 75 mg/kg of body weight (range 50-100 mg/kg) at Day 3. HU was used in a high dosage of at least 1000 mg/kg of body weight (range 1000-1500 mg/kg). The 5-FU and the HU were utilized as ternary compositions only with cyclophosphamide and the platinum compound.
Hydroxyurea is utilized in combination therapy at a high dosage of at least 1000 mg/kg of body weight (range 1000-1500 mg/kg).

P388 leukemia = assay: In vivo activity against P388 leukemia; set-up: species or system murine; details: Days 1,5,9,13, NSC-119875 6.7 mg/kg, NSC-271674 20.0 mg/kg
Source text: (§1) Data are expressed as survival in days and as a percentage increase in […]

CD8Fl mammary = assay: Panel of mouse tumors: CD8Fl mammary, tumor weight inhibition assay; format: in vivo; details: sc tumor, Q7DX5 ip
Method: (§2) **Tumor weight inhibition assay.
(§3) Data are expressed as a percentage of the survival time in days or the
(§4) tumor weights in mg of the treated mice divided by the corresponding
(§5) values for the control mice. All testing was performed using both platinu
(§6) compounds in the same experiment. The criteria for activity are as
(§7) follows: confirmed activity (activity from two separate laboratories) of
(§8) % T/C of 150 or more for survival systems and 10% or less for tumor weigh
(§9) inhibition assays. Lower levels of activity such as a % T/C of 125 for
(§10) survival systems and 42% for tumor weight inhibition assays are considere
(§11) statistically significant.

L1210 cells = assay: In vitro growth inhibition of L1210 cells; format: cell-based, murine; details: growth inhibition by 50 percent
Source text: (§12) The ID50 refers to the concentration of test compound required to
(§13) inhibit the growth of either the L1210 or L1210/DDP (NSC119875) resistant

B16 melanoma = assay: Panel of mouse tumors: B16 melanoma, survival time assay; format: in vivo; details: ip tumor, D1-9 ip
Method: (§14) *Survival time (mean or median) assay
as §2, §3, §4, §5, §6, §7, §8, §9, §10, §11

[2] = tested on: L1210/DDP (NSC119875) resistant cells; assay: In vitro growth inhibition of L1210/DDP (NSC119875 resistant) cells; format: cell-based, murine; details: growth inhibition by 50 percent
Source text: as §12, §13

Colon #38 = assay: Panel of mouse tumors: Colon #38, tumor weight inhibition assay; format: in vivo; details: sc tumor, D2,9 ip
Method: as §2, §3, §4, §5, §6, §7, §8, §9, §10, §11

L1210 = assay: Panel of mouse tumors: L1210, survival time assay; format: in vivo; details: ip tumor, D1-9 ip
Method: as §14, §3, §4, §5, §6, §7, §8, §9, §10, §11

P388/DDP leukemia = assay: In vivo activity against P388/DDP leukemia with acquired resistance to NSC-119875; set-up: species or system murine; details: Days 1,5,9,13, NSC-119875 6.7 mg/kg, NSC-271674 20.0 mg/kg
Source text: P388/DDP refers to a tumor line with acquired resistance to NSC119875.
as §1

Lewis lung = assay: Panel of mouse tumors: Lewis lung, survival time assay; format: in vivo; details: iv tumor, D1-9 ip
Method: as §14, §3, §4, §5, §6, §7, §8, §9, §10, §11

## O=c1[nH]cc(F)c(=O)[nH]1 [5-fluorouracil]
[1]
  mean survival times: significantly increased

## NC(=O)NO [Hydroxyurea, hydroxyurea]
L1210 leukemia
  effectiveness when used alone: only minimally effective

## N.N.[Cl][Pt][Cl] [NSC-119875, Cis-dichlorodiamino platinum II]
P388 leukemia
  % ILS, P388: 145%
P388 leukemia; control 13.3 days
  Survival (Days), P388: 32.6 days
CD8Fl mammary; first line, optimal dose (mg/kg/inj): NSC-119875 8, NSC-271674 6.25
  % T/C (tumor weight): 0%
CD8Fl mammary; second line, optimal dose (mg/kg/inj): NSC-119875 8, NSC-271674 25
  % T/C (tumor weight): 0%
L1210 cells
  ID50 L1210: 0.05 µg/mL
B16 melanoma; first line, optimal dose (mg/kg/inj): NSC-119875 2, NSC-271674 6.25
  % T/C (survival time): 193%
B16 melanoma; second line, optimal dose (mg/kg/inj): NSC-119875 1, NSC-271674 1.56
  % T/C (survival time): 166%
[2]
  ID50 L1210/DDP: 2.50 µg/mL
Colon #38; first line, optimal dose (mg/kg/inj): NSC-119875 8, NSC-271674 12.5
  % T/C (tumor weight): 42%
Colon #38; second line, optimal dose (mg/kg/inj): NSC-119875 16, NSC-271674 50
  % T/C (tumor weight): 11%
L1210; first line, optimal dose (mg/kg/inj): NSC-119875 2, NSC-271674 0.78
  % T/C (survival time): 151%
L1210; second line, optimal dose (mg/kg/inj): NSC-119875 2, NSC-271674 1.56
  % T/C (survival time): 182%
P388/DDP leukemia
  % ILS, P388/DDP: 41%
P388/DDP leukemia; control 11.0 days
  Survival (Days), P388/DDP: 15.5 days
Lewis lung; first line, optimal dose (mg/kg/inj): NSC-119875 2, NSC-271674 3.12
  % T/C (survival time): 135%
Lewis lung; second line, optimal dose (mg/kg/inj): NSC-119875 2, NSC-271674 6.25
  % T/C (survival time): 177%
